Earlier results on 6 compounds are cited in US6531162B1, “Adrenergically-mediated weight loss product” (priority 2002, dated 2003).

The structures appear in SMILES notation. “Also recorded” adds a separate entry of the source.

Data set [1] concerns the target T1, beta-3 receptors (Homo sapiens, UniProt P13945). The note with it: using beta blocking agents.
For data set [2] the following is noted: single doses as high as 21.6 mg or daily cumulative doses as high as 43.2 mg.
The next data set deals with humans. The following applies: after oral dosing.
For data set [3] the following is noted: green tea versus equivalent dose (50 mg) of caffeine.
The target of data set [4] is T1, beta-3 receptors. The following applies: in-vitro studies.
The next data set concerns COMT enzyme. The note with it: in-vitro.

T1 sequence (P13945 whole entry): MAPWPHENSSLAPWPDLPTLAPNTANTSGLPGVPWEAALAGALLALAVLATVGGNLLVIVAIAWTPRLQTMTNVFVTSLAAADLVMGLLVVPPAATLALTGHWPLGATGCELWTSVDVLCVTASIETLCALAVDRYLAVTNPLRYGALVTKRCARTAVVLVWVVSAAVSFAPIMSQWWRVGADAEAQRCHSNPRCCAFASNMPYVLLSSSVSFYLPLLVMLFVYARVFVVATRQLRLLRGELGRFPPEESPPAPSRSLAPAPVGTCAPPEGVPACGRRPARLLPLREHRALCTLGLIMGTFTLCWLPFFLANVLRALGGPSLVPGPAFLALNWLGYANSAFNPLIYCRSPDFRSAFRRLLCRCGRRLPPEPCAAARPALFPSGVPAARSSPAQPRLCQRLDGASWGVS

With `CN[C@@H](C)[C@H](O)c1ccccc1` [ephedrine], the “share of ephedrine-induced thermogenesis accounted for by beta-3 agonist activity” value on beta-3 receptors [1] is “at least 40%”.

Turning to `COc1c(O)cc2c(c1O)[C@@H]1O[C@H](CO)[C@@H](O)[C@H](O)[C@H]1OC2=O` [Bergenin], the “effect on lipogenic actions of insulin” value in the data set on fat cells is recorded as “oppose the lipogenic (fat building) actions of insulin”. Also, the “direct stimulation of lipolysis / adrenergic activity” value with fat cells (in-vitro, compound alone) is reported as “does not directly stimulate lipolysis; also recorded: no direct adrenergic activity”. Besides, in the data set with fat cells (in-vitro, with norepinephrine), the “enhancement of lipolysis induced by norepinephrine” value is on record as “markedly enhances lipolysis; also recorded: increase the lipolytic activity of norepinephrine”.

Regarding `COC(=O)[C@@H]1[C@H]2C[C@H]3c4[nH]c5ccccc5c4CCN3C[C@@H]2CC[C@@H]1O` [Yohimbine], in data set [2], the “impact on blood pressure or heart rate” value was “no significant impact” and the tolerability result is “well tolerated”. Moreover, in the data set on humans, the lipolysis in humans result is recorded as “capable of increasing lipolysis”.

`Cn1c(=O)c2c(ncn2C)n(C)c1=O` [caffeine]: in data set [3], the “24 hour energy expenditure” value is on record as “no noticeable effect”.

On to `NCC(O)c1ccc(O)cc1` (stereo not shown) [Octopamine], for which the “beta-3 agonist activity and selectivity” value at beta-3 receptors [4] was “potent selective beta-3 agonist; also recorded: selective for this receptor”.

`O=C(O[C@@H]1Cc2c(O)cc(O)cc2O[C@@H]1c1cc(O)c(O)c(O)c1)c1cc(O)c(O)c(O)c1` [EGCG]: the “inhibition of the COMT enzyme” value with COMT enzyme is on record as “inhibit the COMT enzyme”.
